For this assay, the target named is T1, SIRT1 (Homo sapiens, UniProt Q96EB6).
T1 sequence (Q96EB6 1-747): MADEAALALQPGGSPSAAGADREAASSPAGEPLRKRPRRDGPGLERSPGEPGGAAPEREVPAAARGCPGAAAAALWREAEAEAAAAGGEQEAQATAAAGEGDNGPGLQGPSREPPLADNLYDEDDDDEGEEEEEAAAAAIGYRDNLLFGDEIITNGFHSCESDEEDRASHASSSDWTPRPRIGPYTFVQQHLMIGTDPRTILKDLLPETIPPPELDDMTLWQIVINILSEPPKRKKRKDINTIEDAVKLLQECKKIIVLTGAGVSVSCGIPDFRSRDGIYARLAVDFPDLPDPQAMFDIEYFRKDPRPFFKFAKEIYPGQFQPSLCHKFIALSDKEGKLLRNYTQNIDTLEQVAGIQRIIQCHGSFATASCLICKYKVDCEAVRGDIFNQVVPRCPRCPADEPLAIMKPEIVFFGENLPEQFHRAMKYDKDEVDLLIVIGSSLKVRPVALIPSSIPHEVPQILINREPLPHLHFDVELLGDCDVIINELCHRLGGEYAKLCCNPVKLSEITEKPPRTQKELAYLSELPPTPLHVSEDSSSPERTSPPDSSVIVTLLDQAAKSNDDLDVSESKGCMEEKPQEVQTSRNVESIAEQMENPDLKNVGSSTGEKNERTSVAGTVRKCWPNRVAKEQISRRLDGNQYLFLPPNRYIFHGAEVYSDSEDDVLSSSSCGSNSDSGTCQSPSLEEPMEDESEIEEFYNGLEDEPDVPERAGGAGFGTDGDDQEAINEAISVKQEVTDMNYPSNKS
As to the kind of experiment: Mass spectrometry based assay of SIRT1 activity. The class given is biochemical. Also noted: key to FOLD ACTIVATION MS: A: Fold activation >250%; B: Fold Activation <250%; C: no fold activation. The note with it: for pEC50: activation of SIRT1, read-out: ED50 MS. The method, then: The mass spectrometry based assay utilizes a peptide having 20 amino acid residues as follows: […] The sequence of the peptide substrate is based on p53 with several modifications. […] Test compounds may be added to the reaction as described above. […] After the 25 minute incubation with SIRT1, 10 μL of 10% formic acid is added to stop the reaction. Reactions are sealed and frozen for later mass spec analysis. Determination of the mass of the substrate peptide allows for precise determination of the degree of acetylation (i.e. starting material) as compared to deacetylated peptide (product). […] This timepoint is the same as that used for test compounds and, within the linear range, the endpoint represents a change in velocity. For each of the above assays, SIRT1 protein was expressed and purified as follows. The SirT1 gene was cloned into a T7-promoter containing vector and transformed into BL21(DE3). The protein was expressed by induction with 1 mM IPTG as an N-terminal His-tag fusion protein at 18° C. overnight and harvested at 30,000×g. […] The protein was purified over a Ni-NTA column (Amersham) and fractions containing pure protein were pooled, concentrated and run over a sizing column (Sephadex S200 26/60 global). The peak containing soluble protein was collected and run on an Ion-exchange column (MonoQ). […] This protein was concentrated and dialyzed against dialysis buffer (20 mM Tris-HCl, 2 mM TCEP) overnight. The protein was aliquoted and frozen at −80° C. until further use.

pEC50: −log10 of the molar value.

Regarding `COc1cccc(C(=O)Nc2cccc(-c3nc4cc(Cl)cc(Cl)c4o3)c2)c1` [Compound 121], the “FOLD ACTIVATION MS” value was “C” and the pEC50 was less than 3.82. For `COc1ccc(C(=O)Nc2cccc(-c3nc4cc(C)ccc4[nH]3)c2)cc1OC` [Compound 117] the same measures were “A (Fold activation >250%)” and greater than 4.30. For `COc1ccc(C(=O)Nc2cccc(-c3nc4ccncc4s3)c2)cc1OC` [Compound 114] the same measures were “A (Fold activation >250%)” and greater than 4.30. The like results for `COc1ccc(C(=O)Nc2cccc(-c3nc4cccnc4o3)c2)cc1OC` [Compound 112] were, in that order, “B (Fold Activation <250%)” and greater than 4.30.

As for `COc1ccc(C(=O)Nc2cccc(-c3nc4ncccc4o3)c2)cc1` [Compound 54], the pEC50 was less than 3.82. The same measure, in the same setting: under `COc1ccc(C(=O)Nc2cccc(-c3nc4ncccc4o3)c2)cc1Cl` [Compound 110] stands 3.82 to 4.00.

For the compound `COc1cc(C(=O)Nc2cc(C(=O)O)cc(-c3nc4ccncc4s3)c2)cc(OC)c1OC` [Compound 134, 3-(thiazolo[5,4-c]pyridin-2-yl)-5-(3,4,5-trimethoxybenzamido)benzoic acid], the “FOLD ACTIVATION MS” value was “B (Fold Activation <250%)” and the pEC50 is greater than 4.30.

Take `COc1cc(C(=O)Nc2cccc(-c3cn4cccc(C)c4n3)c2)cc(OC)c1OC` [Compound 131]: the “FOLD ACTIVATION MS” value is given as “A (Fold activation >250%)” and the pEC50 is greater than 4.30. Consider `O=C(Nc1cccc(-c2nc3ncccc3o2)c1)c1cccc(OC(F)(F)F)c1` [Compound 50], for which the pEC50 is less than 3.82. Consider `COc1ccc(C(=O)Nc2cccc(-c3cn4ccc(C)cc4n3)c2)c(OC)c1` [Compound 128], for which the “FOLD ACTIVATION MS” value is given as “B (Fold Activation <250%)” and the pEC50 is greater than 4.30. With `COc1cc(C(=O)Nc2cccc(-c3nc4ccc(C)cc4o3)c2)cc(OC)c1OC` [Compound 127], the “FOLD ACTIVATION MS” value was “A (Fold activation >250%)” and the pEC50 is greater than 4.30. The like results for `CN(C)c1cccc(C(=O)Nc2cc(C(=O)N3CCNCC3)cc(-c3nc4ncccc4o3)c2)c1` [Compound 138] were, in that order, “B (Fold Activation <250%)” and greater than 4.30. Turning to `COc1cc(C(=O)Nc2cc(CO)cc(-c3nc4ccncc4s3)c2)cc(OC)c1OC` [Compound 135], the “FOLD ACTIVATION MS” value is recorded as “B (Fold Activation <250%)” and the pEC50 is greater than 4.30. The like results for `COc1cccc(OC)c1C(=O)Nc1cccc(-c2nc3ccccc3o2)c1` [Compound 119] were, in that order, “B (Fold Activation <250%)” and greater than 4.30.

As to `O=C(Nc1cccc(-c2nc3ncccc3o2)c1)c1ccccc1N1CCOCC1` [Compound 109], the “FOLD ACTIVATION MS” value was “B (Fold Activation <250%)” and the pEC50 is greater than 4.30.

In the case of `COc1cccc(OC)c1C(=O)Nc1cccc(-c2nc3ccccc3[nH]2)c1` [Compound 126], the “FOLD ACTIVATION MS” value is listed as “B (Fold Activation <250%)” and the pEC50 was greater than 4.30.

For `COc1ccc(C(=O)Nc2cc(C(=O)N3CCNCC3)cc(-c3nc4ncccc4o3)c2)cc1OC` [Compound 164], the “FOLD ACTIVATION MS” value is “B (Fold Activation <250%)” and the pEC50 is greater than 4.30. The like results for `COc1cc(C(=O)Nc2cccc(-c3cn4ccsc4n3)c2)cc(OC)c1OC` [Compound 118] were, in that order, “A (Fold activation >250%)” and greater than 4.30. The like results for `COc1cc(C(=O)Nc2cccc(-c3cn4ccc(C)cc4n3)c2)cc(OC)c1OC` [Compound 129] were, in that order, “A (Fold activation >250%)” and greater than 4.30. Consider `COc1ccc(C(=O)Nc2cccc(-c3cnc4ccccc4n3)c2)cc1OC` [Compound 116], for which the pEC50 is 3.82 to 4.00. `CN(C)c1cccc(C(=O)Nc2cccc(-c3nc4cccnc4o3)c2)c1` [Compound 111]: the “FOLD ACTIVATION MS” value is recorded as “B (Fold Activation <250%)” and the pEC50 is greater than 4.30. With `COc1cc(C(=O)Nc2cccc(-c3nc4ccncc4s3)c2)cc(OC)c1OC` [Compound 115], the “FOLD ACTIVATION MS” value is recorded as “A (Fold activation >250%)” and the pEC50 is greater than 4.30. The like results for `COc1ccccc1C(=O)Nc1cccc(-c2cn3ccsc3n2)c1` [Compound 132] were, in that order, “A (Fold activation >250%)” and greater than 4.30. The like results for `CN(C)c1cccc(C(=O)Nc2cccc(-c3nc4ccncc4s3)c2)c1` [Compound 113] were, in that order, “B (Fold Activation <250%)” and greater than 4.30. Regarding `COc1ccc(C(=O)Nc2cccc(-c3nc4ccccc4s3)c2)c(OC)c1` [Compound 124], the “FOLD ACTIVATION MS” value is “B (Fold Activation <250%)” and the pEC50 is greater than 4.30.

As to `COc1cc(C(=O)Nc2cccc(-c3nc4ccccc4c(=O)o3)c2)cc(OC)c1OC` [Compound 125], the “FOLD ACTIVATION MS” value is given as “B (Fold Activation <250%)” and the pEC50 is 4.00 to 4.29. The like results for `COC(=O)c1cc(NC(=O)c2cc(OC)c(OC)c(OC)c2)cc(-c2nc3ccncc3s2)c1` [Compound 133, methyl 3-(thiazolo[5,4-c]pyridin-2-yl)-5-(3,4,5-trimethoxybenzamido)benzoate] were, in that order, “B (Fold Activation <250%)” and greater than 4.30. For `COc1ccc(C(=O)Nc2cccc(-c3cn4ccc(C)cc4n3)c2)cc1` [Compound 130] the same measures were “B (Fold Activation <250%)” and greater than 4.30.

In the case of `COc1ccc(C(=O)Nc2cc(C(=O)O)cc(-c3nc4ncccc4o3)c2)cc1OC` [Compound 137], the pEC50 is less than 3.82. For the compound `COc1ccc(C(=O)Nc2cc(C(=O)N3CCNCC3)cc(-c3nc4ncccc4o3)c2)c(OC)c1` [Compound 139], the “FOLD ACTIVATION MS” value is reported as “B (Fold Activation <250%)” and the pEC50 was greater than 4.30. On to `COc1ccc(C(=O)Nc2cccc(-c3nc4cc(C(C)C)ccc4o3)c2)cc1OC` [Compound 122], for which the pEC50 is 3.82 to 4.00.

For the origin of these results see patent US20090163476A1, “N-Phenyl Benzamide Derivatives as Sirtuin Modulators” (Sirtris Pharmaceuticals, Inc., priority 2005, published 2009).
